Reference: publication doi:10.1101/2023.09.30.560269v1 (biorxiv, 2023)

Columns and labels:
[1] = target: T1, hLIFR (recombinant human LIFR, His Tag) (Homo sapiens, UniProt P42702); test: AlphaScreen, inhibition of LIFR/LIF binding
T1 sequence (P42702 45-833 limits assumed): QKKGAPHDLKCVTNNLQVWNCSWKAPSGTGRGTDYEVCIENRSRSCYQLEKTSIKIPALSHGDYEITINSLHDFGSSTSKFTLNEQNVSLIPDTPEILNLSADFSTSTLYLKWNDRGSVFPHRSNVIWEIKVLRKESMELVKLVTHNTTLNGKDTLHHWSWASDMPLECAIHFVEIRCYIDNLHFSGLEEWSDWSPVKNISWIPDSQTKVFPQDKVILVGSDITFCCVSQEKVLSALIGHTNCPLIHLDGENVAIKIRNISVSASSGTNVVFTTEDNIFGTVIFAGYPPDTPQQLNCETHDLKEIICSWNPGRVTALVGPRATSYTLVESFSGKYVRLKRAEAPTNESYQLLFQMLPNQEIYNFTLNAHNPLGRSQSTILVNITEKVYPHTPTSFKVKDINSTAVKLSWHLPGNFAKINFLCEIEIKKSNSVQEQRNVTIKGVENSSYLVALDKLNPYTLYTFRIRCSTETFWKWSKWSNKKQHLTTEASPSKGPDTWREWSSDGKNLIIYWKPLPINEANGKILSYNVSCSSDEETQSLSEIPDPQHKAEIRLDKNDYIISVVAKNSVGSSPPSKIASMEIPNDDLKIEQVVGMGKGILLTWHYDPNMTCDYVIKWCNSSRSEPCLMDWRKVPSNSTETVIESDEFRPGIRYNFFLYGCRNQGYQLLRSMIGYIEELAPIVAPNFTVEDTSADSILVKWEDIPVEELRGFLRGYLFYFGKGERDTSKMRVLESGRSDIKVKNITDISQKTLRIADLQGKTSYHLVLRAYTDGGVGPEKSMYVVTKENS

[2] = target: T2, hLIFR and CD130 (IL6ST); LIFR/gp130 (Homo sapiens, UniProt P42702); test: STAT3; type: cell-based
T2 sequence (P42702 45-1097): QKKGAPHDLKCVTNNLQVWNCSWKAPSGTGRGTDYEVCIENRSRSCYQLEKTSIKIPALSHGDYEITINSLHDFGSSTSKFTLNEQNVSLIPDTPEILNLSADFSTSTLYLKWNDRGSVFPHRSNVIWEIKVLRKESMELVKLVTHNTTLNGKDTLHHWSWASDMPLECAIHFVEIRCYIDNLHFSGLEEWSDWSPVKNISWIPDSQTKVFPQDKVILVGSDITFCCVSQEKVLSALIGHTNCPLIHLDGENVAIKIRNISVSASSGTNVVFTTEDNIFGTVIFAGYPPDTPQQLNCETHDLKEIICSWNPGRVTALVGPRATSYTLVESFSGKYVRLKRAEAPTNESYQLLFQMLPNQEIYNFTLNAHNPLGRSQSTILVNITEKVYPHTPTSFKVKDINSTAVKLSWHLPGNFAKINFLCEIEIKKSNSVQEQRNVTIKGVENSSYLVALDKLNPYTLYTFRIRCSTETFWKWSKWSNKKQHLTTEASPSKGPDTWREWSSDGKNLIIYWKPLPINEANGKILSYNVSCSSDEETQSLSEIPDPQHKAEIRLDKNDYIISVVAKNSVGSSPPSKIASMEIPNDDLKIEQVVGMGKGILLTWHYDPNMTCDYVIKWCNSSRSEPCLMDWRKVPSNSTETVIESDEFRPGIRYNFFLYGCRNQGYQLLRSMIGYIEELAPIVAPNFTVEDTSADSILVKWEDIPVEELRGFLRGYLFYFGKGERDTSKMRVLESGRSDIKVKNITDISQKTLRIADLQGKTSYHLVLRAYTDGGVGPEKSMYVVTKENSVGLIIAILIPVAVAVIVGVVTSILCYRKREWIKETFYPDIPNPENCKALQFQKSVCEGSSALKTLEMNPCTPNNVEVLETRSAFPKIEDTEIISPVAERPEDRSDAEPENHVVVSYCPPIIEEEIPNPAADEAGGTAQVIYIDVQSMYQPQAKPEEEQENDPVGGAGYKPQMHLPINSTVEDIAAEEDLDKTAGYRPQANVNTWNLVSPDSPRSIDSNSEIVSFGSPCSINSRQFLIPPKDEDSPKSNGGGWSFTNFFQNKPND

| IC50 [1] [µM] | IC50 [2] [µM] | SMILES |
| --- | --- | --- |
| 38 |  | C[C@H](CCC(=O)NCCS(=O)(=O)O)[C@H]1CC[C@H]2[C@@H]3[C@H](O)C[C@@H]4C[C@H](O)CC[C@]4(C)[C@H]3CC[C@]12C [TCDCA] |
| 23 | ~9.8 | C[C@H](CCC(=O)NCC(=O)O)[C@H]1CC[C@H]2[C@@H]3CC[C@@H]4C[C@H](O)CC[C@]4(C)[C@H]3CC[C@]12C [GLCA] |
| 50.6 |  | C[C@H](CCC(=O)NCC(=O)O)[C@H]1CC[C@H]2[C@@H]3[C@H](O)C[C@@H]4C[C@H](O)CC[C@]4(C)[C@H]3CC[C@]12C [GCDCA] |
| 18.4 | ~6.2 | C[C@H](CCC(=O)O)[C@H]1CC[C@H]2[C@@H]3CC[C@@H]4C[C@H](O)CC[C@]4(C)[C@H]3C[C@H](O)[C@]12C [DCA] |
